In US20050112573A1, “Method of detecting toxic substance” (priority 2001, published 2005):

System: yeast genes (level of expressed mRNA)
Test: DNA chip analysis of expressed mRNA of yeast genes after 2 h culture with a toxic chemical substance
Type: cell-based, Saccharomyces cerevisiae S288C
Conditions: for The level of expressed mRNA in the presence of chemical substance/ (ratio to absence of chemical substance): stress protein genes, DNA chip; for The level of expressed mRNA in the presence of chemical substance/ in its absence, gene YDL078C: yeast gene YDL078C
Experimental: Yeast (Saccharomyces cerevtisiae S288C (α SUC2mal mel gap2 CUP1)) were cultured at 25° C. on YPD medium (yeast extract 1%, polypepton 2%, glucose 2%). One of toxic chemical substances was added to the cell at logarithmic growth phase, and the cell was further cultured for two hours. Cell was cultured without any chemical substance in the same condition, and was used as control. Concentrations of the chemical substances were defined to inhibit the growth of the yeast but not lead to death.
After the completion of cultivation, the culture was centrifuged to collect the cells. To the cells, sodium acetate buffer (50 mM sodium acetate, 10 mM EDTA, 1% SDS) was added, and the mixture was shaken at 65° C. for five minutes, followed by returning to room temperature, and obtaining the supernatant, which procedure was repeated two times. To the supernatant, ½ amount of a solution of phenol/chloroform was added, and the mixture was centrifuged to give a supernatant, which was added with an equal amount of chloroform, and the mixture was centrifuged to give a supernatant. To the supernatant, an equal amount of isopropanol containing 0.3 M sodium acetate was added, and the mixture was allowed to stand at room temperature for 30 minutes, after which the mixture was centrifuged to give a sediment of the whole RNAs. Seventy % ethanol was added to the sediment, and the mixture was again centrifuged to give a sediment, which was then dried and dissolved in water. mRNA was isolated from the whole RNAs as followings. In view of the fact that a poly A chain is attached to the 3′ terminus of mRNA, a polynucleotide having a poly T structure which was immobilized on the surface of latex beads was used to trap the mRNA, and then the mRNA was washed and eluted with spine column (Oligotex-dT30<Super>mRNA Purification Kit, Takara). Reverse transcription of the mRNA was conducted with a reverse transcriptase (Super Script II Reverse Transcriptase; catalogue No. 18064-014, GibcoBRL) using fluorescence-labeled nucleotides to give cDNAs that were introduced with Cy3-dUTP or Cy5-dUTP during the reverse transcription.
The labeled cDNAs were dissolved in TE buffer (10 mM Tris-HCl/1 mM EDTA, pH8.0), and the solution was dropped on the DNA chip containing the whole genes of yeast (DNA Chip Research Inc. Japan) so that the cDNAs were hybridized on the DNA chip at 65° C. for over 12 hours. The fluoresces intensity of the DNA chip was read with a scanner, and the ratio relative to the fluorescence intensity resulting from the absence of chemical substance was estimated as the following, which is shown in Tables 1 to 9: [formula]
In the Tables, “Intensity” indicated in the rightmost column is a value of the level of expressed mRNA of each gene in control cells as divided by the average level of the expressions of the whole genes.

In the case of `COc1cc(CNC(=O)CCCCC=CC(C)C)ccc1O` [(12), 8-methyl-N-vanillyl-6-nonenamide], the “level of expressed mRNA in the presence of chemical substance/in its absence” value (shortened to “level … of chemical substance/in its absence”) (gene YOR344C) is reported as 1.3, the “level … of chemical substance/in its absence” value (gene YOR347C) is reported as 1.2 and the “The level of expressed mRNA in the presence of chemical substance/absence: YPL005W” value (gene YPL005W) is reported as 0.7. The “level … of chemical substance/in its absence” value (gene YPL017C) was 1.0, the “The level of expressed mRNA in the presence of chemical substance / the level in the absence of chemical substance, yeast gene YPL107W” value (gene YPL107W, DNA chip fluorescence ratio to control without chemical, 2 hours culture with chemical, growth-inhibiting non-lethal concentration) was 0.7 and the “The level of expressed mRNA in the presence of chemical substance / the level in the absence of chemical substance, yeast gene YPL138C” value (gene YPL138C, DNA chip fluorescence ratio to control without chemical, 2 hours culture with chemical, growth-inhibiting non-lethal concentration) was 0.9. The “The level of expressed mRNA in the presence of chemical substance/absence: YPL150W” value (gene YPL150W) was 1.0, the “The level of expressed mRNA in the presence of chemical substance/absence: YPL151C” value (gene YPL151C) was 0.8 and the “The level of expressed mRNA in the presence of chemical substance/absence: YPL152W” value (gene YPL152W) was 0.9. For the same molecule, the “The level of expressed mRNA in the presence of chemical substance/absence: YPL168W” value (gene YPL168W) was 0.7, the “The level of expressed mRNA in the presence of chemical substance/absence: YPL180W” value (gene YPL180W) was 0.8 and the “The level of expressed mRNA in the presence of chemical substance/absence: YPL188W” value (gene YPL188W) was 0.6. The “The level of expressed mRNA in the presence of chemical substance/absence: YPL221W” value (gene YPL221W) was 0.8, the “The level of expressed mRNA in the presence of chemical substance/absence: YPL225W” value (gene YPL225W) was 0.7 and the “The level of expressed mRNA in the presence of chemical substance/absence: YPL249C” value (gene YPL249C) was 0.9. For the same molecule, the “The level of expressed mRNA in the presence of chemical substance/absence: YPL260W” value (gene YPL260W) was 0.8, the “level … of chemical substance/in its absence” value (gene YPL265W) was 0.9 and the “level … of chemical substance/in its absence” value (gene YPR006C) was 1.1. The “level … of chemical substance/in its absence” value (gene YPR026W) was 1.2, the “The level of expressed mRNA in the presence of chemical substance/absence: YPR049C” value (gene YPR049C) was 0.9 and the “The level of expressed mRNA in the presence of chemical substance/absence: YPR061C” value (gene YPR061C) was 0.8. For the same molecule, the “The level of expressed mRNA in the presence of chemical substance/absence: YPR093C” value (gene YPR093C) was 0.9, the “The level of expressed mRNA in the presence of chemical substance/absence: YPR146C” value (gene YPR146C) was 0.8 and the “The level of expressed mRNA in the presence of chemical substance/absence: YPR148C” value (gene YPR148C) was 1.2. The “The level of expressed mRNA in the presence of chemical substance/absence: YPR150W” value (gene YPR150W) was 0.6, the “The level of expressed mRNA in the presence of chemical substance/absence: YPR158W” value (gene YPR158W) was 0.6 and the “The level of expressed mRNA in the presence of chemical substance/absence: YPR169W” value (gene YPR169W) was 0.5. The “The level of expressed mRNA in the presence of chemical substance/absence: YPR172W” value (gene YPR172W) was 0.8, the “The level of expressed mRNA in the presence of chemical substance/absence: YPR174C” value (gene YPR174C) was 1.1 and the “The level of expressed mRNA in the presence of chemical substance/The level of expressed mRNA in the absence of chemical substance” value (yeast gene YAR010C) was 1.0. For the same molecule, the “The level of expressed mRNA in the presence of chemical substance/The level of expressed mRNA in the absence of chemical substance” value (yeast gene YBL005W-A) was 1.6, the “The level of expressed mRNA in the presence of chemical substance/ (ratio to absence), gene YBL038W” value (yeast gene YBL038W, mitochondria-located protein genes, 2 h culture with chemical) was 0.7 and the “The level of expressed mRNA in the presence of chemical substance/The level of expressed mRNA in the absence of chemical substance” value (yeast gene YBL041W) was 1.6. The “The level of expressed mRNA in the presence of chemical substance/The level of expressed mRNA in the absence of chemical substance” value (yeast gene YBL043W) was 0.9, the “The level of expressed mRNA in the presence of chemical substance/The level of expressed mRNA in the absence of chemical substance” value (yeast gene YBL078C) was 3.1 and the “The level of expressed mRNA in the presence of chemical substance/ (ratio to absence of chemical substance)” value (yeast gene YBL093C) was 1.1. For the same molecule, the “The level of expressed mRNA in the presence of chemical substance/ (in its absence), gene YBR036C” value (yeast gene YBR036C, ratio of DNA chip fluorescence intensity to that without chemical substance) was 1.0, the “The level of expressed mRNA in the presence of chemical substance/ (ratio to absence of chemical substance)” value (yeast gene YBR044C) was 0.8 and the “The level of expressed mRNA in the presence of chemical substance/ (ratio to absence), gene YBR122C” value (yeast gene YBR122C, mitochondria-located protein genes, 2 h culture with chemical) was 0.7. For the same molecule, the “The level of expressed mRNA in the presence of chemical substance/The level of expressed mRNA in the absence of chemical substance” value (yeast gene YBR214W) was 1.2, the “The level of expressed mRNA in the presence of chemical substance/ (ratio to absence), gene YBR251W” value (yeast gene YBR251W, mitochondria-located protein genes, 2 h culture with chemical) was 1.1 and the “The level of expressed mRNA in the presence of chemical substance/ (in its absence), gene YBR298C” value (yeast gene YBR298C, ratio of DNA chip fluorescence intensity to that without chemical substance) was 1.1. The “The level of expressed mRNA in the presence of chemical substance/The level of expressed mRNA in the absence of chemical substance” value (yeast gene YCL020W) was 1.5, the “The level of expressed mRNA in the presence of chemical substance/The level of expressed mRNA in the absence of chemical substance” value (yeast gene YCL027W) was 0.8 and the “The level of expressed mRNA in the presence of chemical substance/The level of expressed mRNA in the absence of chemical substance” value (yeast gene YCR004C) was 0.8. For the same molecule, the “The level of expressed mRNA in the presence of chemical substance/ (ratio to absence), gene YCR046C” value (yeast gene YCR046C, mitochondria-located protein genes, 2 h culture with chemical) was 1.1, the “The level of expressed mRNA in the presence of chemical substance/The level of expressed mRNA in the absence of chemical substance” value (yeast gene YCR071C) was 1.1 and the “The level of expressed mRNA in the presence of chemical substance/ (ratio to absence), gene YCR083W” value (yeast gene YCR083W, mitochondria-located protein genes, 2 h culture with chemical) was 1.1. The “The level of expressed mRNA in the presence of chemical substance/ (ratio to absence of chemical substance)” value (yeast gene YCR083W) was 1.1, the “The level of expressed mRNA in the presence of chemical substance/The level of expressed mRNA in the absence of chemical substance” value (yeast gene YCR088W) was 1.3 and the “The level of expressed mRNA in the presence of chemical substance/The level of expressed mRNA in the absence of chemical substance” value (yeast gene YDL008W) was 1.2. The “The level of expressed mRNA in the presence of chemical substance/ in its absence, gene YDL067C” value (yeast gene YDL067C, energy system protein genes, 2 h culture with the chemical, ratio to control without chemical) was 1.0, the “The level of expressed mRNA in the presence of chemical substance/ (ratio to absence), gene YDL067C” value (yeast gene YDL067C, mitochondria-located protein genes, 2 h culture with chemical) was 1.0 and the “The level of expressed mRNA in the presence of chemical substance/ in its absence, gene YDL078C” value (energy system protein genes, 2 h culture with the chemical, ratio to control without chemical) was 0.8. The “The level of expressed mRNA in the presence of chemical substance/ in its absence, gene YDL078C” value (ratio of DNA chip fluorescence intensity to that without chemical substance) was 0.8, the “The level of expressed mRNA in the presence of chemical substance/ (in its absence), gene YDL215C” value (yeast gene YDL215C, ratio of DNA chip fluorescence intensity to that without chemical substance) was 0.8 and the “The level of expressed mRNA in the presence of chemical substance/The level of expressed mRNA in the absence of chemical substance” value (yeast gene YDL238C) was 0.9. The “The level of expressed mRNA in the presence of chemical substance/The level of expressed mRNA in the absence of chemical substance” value (yeast gene YDR055W) was 1.4.
